This note sets out measurements from patent US9700578B2, “Use of nitrite salts for the treatment of cardiovascular conditions” (The United States of America as represented by the …, priority 2003, dated 2017).

The test system of one test is forearm circulation. The test is described as follows: Sodium nitrite infusion into the brachial artery, forearm blood flow by venous-occlusion plethysmography. The following applies: 8 μmol/min into brachial artery for 5 minutes. The text has this:
The protocol was approved by the Institutional Review Board of the National Heart, Lung and Blood Institute, and informed consent was obtained from all volunteer subjects. […] An additional 10 subjects returned three-six months later for a second series of experiments with low dose nitrite infusion. […] No volunteer subject was allowed to take any medication (oral contraceptive agents allowed), vitamin supplements, herbal preparations, nutriceuticals or other “alternative therapies” for at least one month prior to study and were not be allowed to take aspirin for one week prior to study.
Brachial artery and antecubital vein catheters were placed into the arm, with the intraarterial catheter connected to a pressure transducer for blood pressure measurements and an infusion pump delivering normal saline at 1 mL/min. After 20 minutes of rest, baseline arterial and venous blood samples were obtained and forearm blood flow measurements were made by strain gauge venous-occlusion plethysmography, as previously reported (Panza et al., Circulation, 87, 1468-74, 1993). A series of 7 blood flow measurements were averaged for each blood flow determination. A series of measurements termed Parts I and II were performed in randomized order to minimize a time effect on the forearm blood flow response during nitrite infusion.
Part I: Following 20 minutes of 0.9% NaCl (saline) solution infusion at 1 mL/min into the brachial artery, arterial and venous blood samples were obtained for the assays described below and forearm blood flow measured. Exercise was performed by repetitive hand-grip at one-third of the predetermined maximum grip strength using a hand-grip dynamometer (Technical Products Co.) (Gladwin et al., Proc Natl Acad Sci USA, 97, 9943-8, 2000; Gladwin et al., Proc Natl Acad Sci USA, 97, 11482-11487, 2000; Cannon et al., J Clin Invest, 108, 279-87, 2001). Each contraction lasted for 10 seconds followed by relaxation for 5 seconds. Following 5 minutes of exercise, forearm blood flow measurements were obtained during relaxation phases of exercise, and arterial and venous samples collected. Following a 20-minute rest period with continued infusion of saline into the brachial artery, repeated baseline blood samples and forearm blood flow measurements were obtained. L-NMMA was then infused at a rate of 1 mL/min (8 μmol/min) into the brachial artery. Following 5 minutes of L-NMMA infusion, forearm blood flow was measured, and arterial and venous blood samples obtained. Forearm exercise was then initiated in that arm during continued L-NMMA infusion. Forearm blood flow was measured and blood samples obtained after 5 minutes of exercise during continued L-NMMA infusion (FIG. 1).
Part II: After a 30 minute rest period with continued infusion of saline, baseline measurements were obtained, the saline infusion was then stopped, and infusion of nitrite (NaNO2 36 μmol/ml in 0.9% saline) at 1 ml/min was started. […] For the final 9 subjects studied, 0.01-0.03 mM sodium bicarbonate was added to the normal saline, so as to titrate pH to 7.0-7.4. The nitrite solution was light protected and nitrite levels and free NO gas in solution measured by reductive chemiluminescence after all experiments (Gladwin et al., J Biol Chem, 21, 21, 2002).

The test system of test [1] is hepatic ischemia-reperfusion injury. In words: Hepatic ischemia-reperfusion (I/R) injury. It is filed as in vivo, mice. On the procedure: Carboxy-PTIO [2-(4-Carboxyphenyl)-4,4,5,5-tetramethylimidazoline-1-oxyl-3-oxide potassium salt], a direct intravascular NO scavenger, was utilized to inhibit NO dependent effects following hepatic I/R injury. Carboxy-PTIO (Alexis Biochemicals) was dissolved in phosphate buffered saline and administered intravenously at a dose of 1 mg/Kg in a volume of 50 μL at 30 minutes prior to hepatic ischemia Zinc(II) Deuteroporphyrin IX-2,4-bisethyleneglycol (ZnDBG) (Alexis Biochemicals), a heme oxygenase-1 inhibitor was injected i.p. at a dose of 10 mg/Kg in a volume of 50 μL at 30 minutes prior to the induction of hepatic ischemia.
All of the mice utilized in the present studies were C57BL6/J at 8-10 weeks of age obtained from the Jackson Laboratories (Bar Harbor, Me.). In additional experiments of hepatic I/R injury we utilized mice completely deficient (−/−) in endothelial nitric oxide synthase (eNOS). eNOS−/− mice were originally generously donated from Dr. Paul Huang (Mass. General Hospital) and generated in our breeding colony at LSU-Health Sciences Center. eNOS−/− mice were utilized at 8-10 weeks of age.
The hepatic I/R protocol is depicted in FIG. 6A and has been described previously (Hines et al., Biochem Biophys Res Commun 284:972-976, 2001; Hines et al., Am J Physiol Gastrointest Liver Physiol 284:G536-545, 2001). Mice were anesthetized with the combination of ketamine (100 mg/kg) and zylazine (8 mg/kg) and a midline laparotomy was performed to expose the liver. Mice were then injected with heparin (100 μg/kg, i.p.) to prevent blood clotting. The left lateral and median lobes of the liver were rendered ischemic by completely clamping the hepatic artery and the portal vein using microaneurysm clamps. This experimental model results in a segmental (70%) hepatic ischemia. This method of partial ischemia prevents mesenteric venous congestion by allowing portal decompression throughout the right and caudate lobes of the liver. The liver was then repositioned in the peritoneal cavity in its original location for 45 minutes. The liver was kept moist using gauze soaked in 0.9% normal saline. In addition, body temperature was maintained at 37° C. using a heat lamp and monitoring body temperature with a rectal temperature probe. Sham surgeries were identical except that hepatic blood flow was not reduced with a microaneurysm clamp. The duration of hepatic ischemia was 45 minutes in all experiments, following which the microaneurysm clamps were removed. The duration of hepatic reperfusion was 5 hours in the studies of serum liver transaminase levels (i.e., AST or ALT) and 24 hours for the studies of liver histopathology (such as hepatocellular infarction).
Serum samples were analyzed for aspartate aminotransferase (AST) and alanine aminotransferase (ALT) using a spectrophotometric method (Sigma Chemical Co., St. Louis, Mo.) (Harada et al., Proc Natl Acad Sci USA 100:739-744, 2003). These enzymes are liver specific and are released from the liver during injury (Hines et al., Biochem Biophys Res Commun 284:972-976, 2001; Hines et al., Am J Physiol Gastrointest Liver Physiol 284:G536-545, 2001). […]

Test [2] relates to hypoxic-induced pulmonary hypertension. The test is described as follows: Comparison of inhaled nitrite and NO gas during hypoxic-induced pulmonary vasoconstriction: efficacy and duration. To be noted: hypoxia. Type of test: in vivo, newborn lambs. The source says:
NO gas was introduced into the inspiratory limb of the breathing circuit. The inspired concentration of NO was continuously measured by chemiluminescence (CLD 700 AL, Eco Physics Inc, Ann Arbor, Mich.) in the inspiratory limb of the ventilator loop.
efficacy and duration of effect. This protocol was designed to compare the efficacy of nitrite with the clinical standard, 20 ppm inhaled NO gas. […] A second purpose was to determine the duration of effect of a short nitrite nebulization versus NO gas inhalation on hemodynamic and physiological measurements during prolonged hypoxic-induced pulmonary vasoconstriction. After baseline measurements were performed, the lambs were made hypoxic as described above for 35 minutes. Ten minutes after initiation of hypoxia, a 20-minute period of NO gas inhalation was initiated (20 ppm), with continuation of hypoxia for 5 minutes after cessation of NO gas delivery. Lambs were then allowed to recover for one hour. Again, after baseline measurements were made, a second 90-minute period of hypoxia was initiated.

The test system of test [3] is U46619-induced normoxic pulmonary hypertension. It is filed as in vivo. The following applies: 2 μg/kg/min i.v. for 30 minutes; before 24±1.
Experimental: This is a simple, inexpensive, and widely available clinical nebulizer system, though other systems could be used.
Six additional lambs were studied in order to evaluate the effects of nitrite nebulization on normoxic pulmonary hypertension. Stable normoxic pulmonary hypertension was induced by an infusion of a stable endoperoxide analog of thromboxane (U46619-9,11-dideoxy-11α-epoxymethano-prostaglandin F2α, Cayman Chemicals, Ann Arbor, Mich.). The drug was dissolved in saline and was administered at a rate of 2 μg/kg/min into the femoral venous catheter for 30 minutes. Nitrite was nebulized for inhalation during the last 20 minutes of the infusion (FIG. 11).

Turning to `CNC(=N)NCCC[C@H](N)C(=O)O` [L-NMMA, L-NG-monomethyl-arginine], in the test with forearm circulation, the “reduction of forearm blood flow” value is “approximately 30%”.

On to `O=[N+]([O-])[O-].[Na+]` [sodium nitrate], for which the “serum elevations of liver transaminases AST and ALT” value in test [1] (intraperitoneal during hepatic ischemia, 45 min ischemia, 5 h reperfusion, nitrite 1.2-480 nmoles, nitrate 48 nmoles) was “did not exert any protective effects”.

Consider `[N]=O` [NO gas, nitric oxide], for which, in test [2] (20 ppm), the “loss of the vasodilating effect after termination of delivery” value is recorded as “in a matter of seconds”. In addition, the “reduction (correction) of hypoxic-induced pulmonary hypertension” value in test [2] (NO gas 20 ppm or nitrite aerosol for 20 minutes) was “about 80%”.

Regarding `CCCCCC(O)/C=C/C1C2CC(CO2)C1C/C=C\CCCC(=O)O` (stereo not drawn) [U46619, 9,11-dideoxy-11α-epoxymethano-prostaglandin F2α], in test [3], the “pulmonary artery pressure during infusion” value stood at 51±4 mmHg.

With `CC1(C)N([O])C(c2ccc(C(=O)[O-])cc2)=[N+]([O-])C1(C)C.[K+]` [PTIO, 2-(4-Carboxyphenyl)-4,4,5,5-tetramethylimidazoline-1-oxyl-3-oxide potassium salt], in test [1] (nitrite 24 μM + PTIO, full factorial design), the “effect on nitrite protection (serum AST)” value was “completely inhibited protective effects of nitrite”.
